This is an account of results in ChEMBL document CHEMBL5614400, “Emerging therapeutics: The imidazo[1,2-b]pyridazine scaffold as a novel drug candidate for eumycetoma, a neglected tropical disease” (Eur J Med Chem, 2024).

By IC50 is commonly meant the midpoint of a concentration-inhibition curve. The low end stands for greater potency, the high end for weaker potency. As usually defined, the MIC is the lowest concentration found to suppress growth.

The test system of series [1] is Madurella mycetomatis. Put plainly: Antifungal activity against Madurella mycetomatis MM55 at 25 uM by XTT assay. The series is classed as functional, organism-based. Background: Formazan colour is commonly taken as a measure of viable cells.
Series [2] relates to Madurella mycetomatis. Nature of the series: Antifungal activity against Madurella mycetomatis MM55 at 100 uM by XTT assay. The series is classed as functional, organism-based.
For series [3], the system named is Madurella mycetomatis. Nature of the series: Antifungal activity against Madurella mycetomatis MM55 by XTT assay. The series is classed as functional, organism-based. The conditions noted are these: Madurella mycetomatis, MM55.
Series [4] relates to Madurella mycetomatis. Put plainly: Antifungal activity against Madurella mycetomatis AL1 by XTT assay. The series is classed as functional.
In series [5] the test system is Madurella mycetomatis. Put plainly: Antifungal activity against Madurella mycetomatis P1 by XTT assay. The series is classed as functional.
The subject of series [6] is Madurella mycetomatis. Nature of the series: Antifungal activity against Madurella mycetomatis I11 by XTT assay. The series is classed as functional.
Series [7] deals with Madurella mycetomatis. Put plainly: Antifungal activity against Madurella mycetomatis SO1 by XTT assay. The series is classed as functional.
Series [8] has as its system Madurella mycetomatis. Nature of the series: Antifungal activity against Madurella mycetomatis I1 by XTT assay. The series is classed as functional.
For series [9], the system named is Madurella mycetomatis. Put plainly: Antifungal activity against Madurella mycetomatis MM50 by XTT assay. The series is classed as functional.
Series [10] in a line: Cytotoxicity against mouse NIH3T3 cells incubated for 5 days by MTT assay. The series is classed as toxicity, cell-based.
Series [11] relates to Madurella mycetomatis. Nature of the series: Antifungal activity against Madurella mycetomatis I3 by XTT assay. The series is classed as functional.
Series [12] in a line: Selectivity index, ratio of IC50 for mouse NIH3T3 cells to IC50 for Madurella mycetomatis MM55. The series is classed as toxicity. The conditions noted are these: read-out: Ratio IC50.
Series [13] deals with Madurella mycetomatis. Put plainly: Antifungal activity against Madurella mycetomatis CBS247.48 by XTT assay. The series is classed as functional.
Series [14] has as its system Madurella mycetomatis. Nature of the series: Antifungal activity against Madurella mycetomatis Peru72012 by XTT assay. The series is classed as functional.

Converted amounts (≈) assume the structure as drawn. The source made the active and inactive calls. The rule behind the calls is not given here.

With `CN1CCN(c2cc(-c3ccoc3)c3nc(-c4ccc(F)cc4)cn3n2)CC1`, the outcome in [1] was inactive. The result in series [2] was Active.
For `CN1CCN(c2cc(-c3cccc4[nH]ccc34)c3nc(-c4ccc(F)cc4)cn3n2)CC1`, in that order: “Active” and “Active”.
The compound `CN1CCN(c2cc(-c3cccnc3)c3nc(-c4ccc(F)cc4)cn3n2)CC1` returned a half-inhibitory concentration (IC50) in series [3] above 16 µM. For the same compound, the outcome in series [1] and in [2] was Active.
On to `CN1CCN(c2cc(-c3ccsc3)c3nc(-c4ccc(F)cc4)cn3n2)CC1`, for which the result in series [1] and in series [2] was Active.
For the compound `CN1CCN(c2cc(-c3cnn(C)c3)c3nc(-c4ccc(F)cc4)cn3n2)CC1`, the outcome in [1] and in series [2] was Active.
On to `CN1CCN(c2cc(-c3ccncc3)c3nc(-c4ccc(F)cc4)cn3n2)CC1`, for which the result in series [1] was inactive. Besides, in series [2], the result was Active.
`CN1CCN(c2cc(-c3cccnc3)c3nc(-c4ccccc4F)cn3n2)CC1` displayed a half-inhibitory concentration (IC50) in [3] of 11.5 µM. In addition, the result in series [1] and in [2] was Active.
`CN1CCN(c2cc(-c3ccccc3)c3nc(-c4ccc(F)cc4)cn3n2)CC1`: the result in [1] and in series [2] was inactive.
Consider `CN1CCN(c2cc(Br)c3nc(-c4ccc(F)cc4)cn3n2)CC1`, for which the outcome in series [1] and in series [2] was inactive.
Take `CN1CCN(c2cc(-c3cccnc3)c3nc(-c4cccc(F)c4)cn3n2)CC1`: the IC50 in [3] stood at 11.7 µM. Besides, the result in [1] and in series [2] was Active.
For the compound `CN1CCN(c2cc(-c3ccnn3C)c3nc(-c4ccc(F)cc4)cn3n2)CC1`, the result in [1] was inactive. Also, in series [2], the result was Active.
On the same counts, the results for `CN1CCN(c2cc(-c3cccc4[nH]ccc34)c3nc(-c4ccccc4)cn3n2)CC1` are “Active” and “Active”.
For the compound `CN1CCN(c2cc(-c3cnc(N4CCN(C)CC4)nc3)c3nc(-c4ccc(F)cc4)cn3n2)CC1`, the MIC turned out to be 4 µM (≈ 1.95 µg/mL) in series [4]; 4 µM (≈ 1.95 µg/mL) in series [5]; 8 µM (≈ 3.9 µg/mL) in [6]; 8 µM (≈ 3.9 µg/mL) in series [3]; 4 µM (≈ 1.95 µg/mL) in [7]; 4 µM (≈ 1.95 µg/mL) in series [8]. Also, the MIC in series [9] is 4 µM (≈ 1.95 µg/mL); in [11], 8 µM (≈ 3.9 µg/mL); in [13], 4 µM (≈ 1.95 µg/mL); in series [14], 4 µM (≈ 1.95 µg/mL). The compound further registered an IC50 in series [3] of 2.9 µM. Also, the IC50 at 5 days in [10] came out at 12.3 µM. Moreover, in series [12], the selectivity ratio was 6.8.
Turning to `CN1CCN(c2cc(-c3ccsc3)c3nc(-c4ccccc4)cn3n2)CC1`, the MIC in [4] is 8 µM (≈ 3 µg/mL); in [5] it was 8 µM (≈ 3 µg/mL); in series [6], 4 µM (≈ 1.5 µg/mL); in series [3], 8 µM (≈ 3 µg/mL); in series [7] it was 8 µM (≈ 3 µg/mL); in series [8], 8 µM (≈ 3 µg/mL). Further, the minimal inhibitory concentration (MIC) in series [9], in series [11], in series [13] and in [14] was 8 µM (≈ 3 µg/mL) throughout. In [3], this compound yielded an IC50 of 3.5 µM. Half-maximal inhibition in series [10] (IC50 at 5 days) required 10.2 µM. For the same compound, the selectivity ratio in series [12] was found to be 5.1.
For `OCCN1CCN(c2cc(-c3ccsc3)c3nc(-c4cccc(F)c4)cn3n2)CC1`, the minimum inhibitory concentration (MIC) in [4] was determined as 8 µM (≈ 3.39 µg/mL); in series [5], 4 µM (≈ 1.69 µg/mL); in series [6] it was 4 µM (≈ 1.69 µg/mL); in series [3], 4 µM (≈ 1.69 µg/mL); in [7], 8 µM (≈ 3.39 µg/mL); in series [8], 8 µM (≈ 3.39 µg/mL). Besides, the MIC in [9] was determined as 8 µM (≈ 3.39 µg/mL); in [11] it was 8 µM (≈ 3.39 µg/mL); in [13] it was 4 µM (≈ 1.69 µg/mL); in series [14], 8 µM (≈ 3.39 µg/mL). Also, in series [3], half-maximal inhibition (IC50) was put at 0.9 µM. Moreover, the IC50 at 5 days in series [10] was determined as 10.7 µM. The selectivity ratio in [12] stood at 8.2.
With `OCCN1CCN(c2cc(-c3ccsc3)c3nc(-c4ccccc4)cn3n2)CC1`, the minimal inhibitory concentration (MIC) in series [4] was 8 µM (≈ 3.24 µg/mL); in series [5], 8 µM (≈ 3.24 µg/mL); in series [6] it was 8 µM (≈ 3.24 µg/mL); in series [3], 4 µM (≈ 1.62 µg/mL); in series [7], 16 µM (≈ 6.49 µg/mL); in series [8] it was 8 µM (≈ 3.24 µg/mL). In addition, the minimal inhibitory concentration (MIC) in [9], in series [11], in [13] and in series [14] was 8 µM (≈ 3.24 µg/mL) each time. Also, half-maximal inhibition in series [3] (IC50) required 2.6 µM. The midpoint of inhibition in [10], the IC50 at 5 days, lay at 13.1 µM. For the same compound, in series [12], the selectivity ratio was 3.4.
